What was measured:
Type in all cases: in vivo
souris mâle [1] = assay: Global behaviour and reactivities in the mouse; conditions: I.P., 512 mg/kg, observed 15 min to 24 h after administration
Description: (§1) Les résultats des essais qui ont été entrepris ont été résumés ci-après. Dans ces essais, le CRL 40569 (produit de l'exemple 1) en suspension dans une solution aqueuse de gomme arabique, et le CRL 40615 (produit de l'exemple 2) en solution dans de l'eau distillée ont été administrés par voie intrapéritonéale sous un volume de 20 ml/kg chez la souris mâle et sous un volume de 5 ml/kg chez le rat mâle.
(§2) Des lots de 3 animaux par dose et par produit sont observés avant,puis 15 minutes, 30 minutes, 1 h, 2h, 3h et 24 h après administration des CRL 40569 et CRL 40615.

souris mâle [2] = assay: Toxicity: DL-0 (maximal non-lethal dose); conditions: male mouse, I.P. route
Description: as §1
La DL-0 (dose maximale non mortelle) chez la souris mâle par voie I.P. pour les CRL 40569 et CRL 40615 est supérieure à 1024 mg/kg.

souris [3] = assay: Action on spontaneous motility (actimeter); conditions: mouse, recorded 30 min, starting half an hour after dosing
Description: as §1
Une demi-heure après avoir reçu les produits à tester, les souris (6 par dose et par produit, 12 témoins pour chaque produit) sont placées en actimètre ou leur motilité est enregistrée pendant 30 minutes.

rat mâle = assay: Global behaviour and reactivities in the rat; conditions: I.P.
Description: as §1, §2

rats = assay: Interaction with amphetamine (amphetamine stereotypies); conditions: rat, 256 mg/kg I.P.; amphetamine 2 mg/kg I.P. half an hour after the compound
Description: as §1
Des lots de 6 rats reçoivent une injection par voie I.P. de 2 mg/kg d'amphétamine une demi-heure après le CRL 40569.

souris [4] = assay: Action on intergroup aggressiveness (number of fights); conditions: mouse, notably at 512 mg/kg I.P.; groups joined half an hour after dosing, fights counted over 10 minutes
Description: as §1
Après avoir séjourné pendant 3 semaines de part et d'autre d'une cloison opaque séparant leur cage par le milieu, des groupes de 3 souris reçoivent le CRL 40615. Une demi-heure plus tard, les deux groupes d'une même cage sont réunis par retrait de la cloison et ou note le nombre de combats qui surviennent en 10 minutes.

Compound: COc1ccc(C[S+]([O-])CC(N)=O)cc1 (stereo not shown) [CRL 40569, 4-méthoxybenzylsulfinyl-acétamide]
- comportement global et réactivités (souris mâle [1]): diminution fugace de la réactivité au toucher, de la force et du tonus musculaire
- DL-0 (dose maximale non mortelle) (souris mâle [2]): > 1024 mg/kg
- motilité spontanée (souris [3]; I.P., 32, 128 and 512 mg/kg): diminution de la motilité spontanée
- comportement global et réactivités (rat mâle; at none of the doses used (256, 64, 16 and 4 mg/kg)): n'a entraîné des modifications nettes du comportement et des réactivités
- intensité des stéréotypies amphétaminiques (rats): diminue légèrement l'intensité des stéréotypies amphétaminiques

Compound: COc1ccc(C[S+]([O-])CC(=O)NCCN2CCOCC2)cc1 (stereo not drawn) [CRL 40615, N-β-morpholinoéthyl-4-méthoxybenzylsulfinyl-acétamide]
- comportement global et réactivités (souris mâle [1]; 128 mg/kg and 32 mg/kg): sédation pendant 15 à 30 minutes puis une excitation tardive qui se manifeste 24 h après administration
- DL-0 (dose maximale non mortelle) (souris mâle [2]): > 1024 mg/kg
- nombre de combats (souris [4]): diminue le nombre de combats
- motilité spontanée (souris [3]; I.P., high dose (512 mg/kg)): diminue la motilité spontanée
- comportement global et réactivités (rat mâle; 256 mg/kg): diminution du tonus musculaire
